Among the data in ChEMBL document CHEMBL1201862, “PubChem BioAssay data set” (2004) are IC50 values, retold here.

The source made the active and inactive calls. Cut-off read from the data, not from the text of the source: actives have a measured IC50 and inactives only a lower limit.

By IC50 is commonly meant the concentration at which inhibition is half-maximal.

Chain of Envelope glycoprotein gp160 (Q6QLK5 whole entry, the tested form may be a part): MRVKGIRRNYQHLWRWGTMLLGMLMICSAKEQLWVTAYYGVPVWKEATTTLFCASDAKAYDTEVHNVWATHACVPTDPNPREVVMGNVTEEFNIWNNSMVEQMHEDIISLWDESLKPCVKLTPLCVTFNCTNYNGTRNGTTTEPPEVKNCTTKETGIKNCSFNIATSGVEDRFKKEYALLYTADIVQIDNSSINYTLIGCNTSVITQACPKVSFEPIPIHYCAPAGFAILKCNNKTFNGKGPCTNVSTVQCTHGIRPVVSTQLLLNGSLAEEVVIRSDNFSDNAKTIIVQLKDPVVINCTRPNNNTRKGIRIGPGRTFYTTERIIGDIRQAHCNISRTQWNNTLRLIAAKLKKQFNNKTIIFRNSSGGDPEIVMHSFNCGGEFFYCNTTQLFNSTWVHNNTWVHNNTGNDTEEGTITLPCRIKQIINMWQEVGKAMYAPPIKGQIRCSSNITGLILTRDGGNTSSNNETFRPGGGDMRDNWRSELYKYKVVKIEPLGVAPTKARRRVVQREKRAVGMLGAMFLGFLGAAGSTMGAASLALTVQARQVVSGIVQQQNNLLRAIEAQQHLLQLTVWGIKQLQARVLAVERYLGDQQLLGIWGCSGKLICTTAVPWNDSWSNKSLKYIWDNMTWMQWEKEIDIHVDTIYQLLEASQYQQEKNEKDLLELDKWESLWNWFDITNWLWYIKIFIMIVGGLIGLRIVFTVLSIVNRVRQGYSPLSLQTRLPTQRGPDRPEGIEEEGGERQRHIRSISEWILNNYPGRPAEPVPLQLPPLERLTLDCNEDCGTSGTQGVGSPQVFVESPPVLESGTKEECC

This assay has as its target Envelope glycoprotein gp160 (Human immunodeficiency virus 1, UniProt Q6QLK5). Kind of assay: inhibitors of HIV fusion peptide binding, primary screen, biochemical, uHTS, fluorescence dequenching (AID 1986).
Consider `COc1ccc(-c2nn(-c3ccccc3)cc2/C=C2/SC(=S)N(CCCC(=O)O)C2=O)c(C)c1`, for which the IC50 was 20.2 µM (active). In the case of `O=C(Nc1ccccc1Cc1ccccc1)c1ccccc1NS(=O)(=O)c1ccc(Cl)s1`, the half-maximal inhibitory concentration (IC50) was 17 µM (active).

Consider `CCS(=O)(=O)C1=NN2C(=N)/C(=C\c3ccc(OS(=O)(=O)c4ccccc4)c(OC)c3)C(=O)N=C2S1`, for which the half-inhibitory concentration (IC50) is 17.8 µM (active). Consider `CCc1ccc(NC2=NC(=O)/C(=C/c3cc(Br)c(OCC(=O)O)c(OC)c3)S2)cc1`, for which the IC50 was 14.6 µM (active). The value for `O=C(O)c1ccccc1N=Nc1c(O)[nH]c2ccc([N+](=O)[O-])cc12` was 23.3 µM (active).
